Assays:
[1] = target: T1, pregnane X receptor (PXR) (Homo sapiens, UniProt O75469); experiment: mammalian two-hybrid PXR-LBD assembly assay in HepG2; NCOR2 release, NCOA1 recruitment; SPA70-blocked CYP3A4 reporter; assay type: cell-based; details: hepg2, 10 µM
T1 construct: gene NR1I2; PXR-LBD (132-188) + (189-434) assembly; LBD (108-434) in co-factor assays
T1 sequence (O75469 108-434): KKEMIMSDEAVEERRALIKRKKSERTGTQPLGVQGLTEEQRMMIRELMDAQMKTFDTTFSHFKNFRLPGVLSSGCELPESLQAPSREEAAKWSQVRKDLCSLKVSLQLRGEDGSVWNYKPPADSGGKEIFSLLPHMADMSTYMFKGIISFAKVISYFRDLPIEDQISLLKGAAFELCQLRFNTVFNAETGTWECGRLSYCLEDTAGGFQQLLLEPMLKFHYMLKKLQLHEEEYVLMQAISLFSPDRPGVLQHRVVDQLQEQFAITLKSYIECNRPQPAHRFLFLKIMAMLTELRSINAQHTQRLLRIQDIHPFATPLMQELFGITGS

[2] = target: T2, pregnane X receptor (PXR) (Homo sapiens, UniProt O75469); experiment: mammalian two-hybrid PXR-LBD assembly assay in HepG2; assay type: cell-based; details: hepg2, 10 µM
T2 construct: gene NR1I2; PXR-LBD (132-188) + (189-434)
T2 sequence (O75469 132-188): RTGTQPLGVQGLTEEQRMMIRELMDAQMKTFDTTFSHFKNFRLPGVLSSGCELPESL
T2 sequence (O75469 189-434): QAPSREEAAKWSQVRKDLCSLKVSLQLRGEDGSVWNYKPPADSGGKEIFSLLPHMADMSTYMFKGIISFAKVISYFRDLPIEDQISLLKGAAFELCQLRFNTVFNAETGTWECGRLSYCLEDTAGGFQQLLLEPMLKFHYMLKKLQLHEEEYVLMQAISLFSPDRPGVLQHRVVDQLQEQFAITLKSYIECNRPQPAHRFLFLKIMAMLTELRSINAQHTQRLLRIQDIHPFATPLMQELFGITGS

Row | Substance | Measured Activity ^1 [1] | Measured Activity ^1 [2]
1 | MolPort-006-630-110 [compound 39] |  | 80.37 % of rifampicin activity at 10 µM
2 | MolPort-006-629-818 [compound 34] |  | 100.91 % of rifampicin activity at 10 µM
3 | MolPort-000-431-925 [compound 22] |  | 91.00 % of rifampicin activity at 10 µM
4 | MolPort-006-630-224 [compound 25] | 136.87 % of rifampicin activity at 10 µM | 

Continued, values first:

Row | Measured Activity ^1 [1] | Measured Activity ^1 [2] | Substance
5 | 84.18 % of rifampicin activity at 10 µM |  | MolPort-002-216-386 [compound 53]
6 | 115.84 % of rifampicin activity at 10 µM |  | MolPort-000-431-927 [compound 42]
7 |  | 71.67 % of rifampicin activity at 10 µM | MolPort-000-431-934 [compound 43]
